The subject of one experiment is LNCaP. As to the kind of experiment: Cytotoxicity against human LNCAP cells assessed as inhibition of cell proliferation by MTS assay. In kind it is functional, cell-based. (In general: Tetrazolium assays rely on reduction of a dye to a coloured formazan, in cell work by metabolically active cells.)
The subject of experiment [1] is Calf thymus DNA. The experiment can be described thus: Binding affinity to calf thymus DNA assessed as change in melting temperature at 6.9 DNA to compound ratio at pH 7.2 by spectrophotometric analysis. In kind it is nucleic-acid assay. To be noted: Bos taurus.
The test system of experiment [2] is L1210. As to the kind of experiment: Cytotoxicity against mouse L1210 cells after 3 days by coulter counter analysis. In kind it is functional, cell-based. The note with it: L1210, 72 h.
Experiment [3] deals with L1210. The experiment can be described thus: Cytotoxicity against mouse L1210 cells. In kind it is functional, cell-based.
Experiment [4] has as its system L1210. The experiment can be described thus: Cytotoxicity against mouse L1210 cells after 24 hrs by MTT assay. The note with it: L1210, 24 h. The format is functional, cell-based.
Experiment [5] relates to Calf thymus DNA. The experiment can be described thus: Binding affinity to calf thymus DNA assessed as change in melting temperature treated with (5-amino-1-(chloromethyl)-1H-benzo[e]indol-3(2H)-yl)(5-(2-(dimethylamino)ethoxy)-1H-indol-2-yl)methanone at 0.2 equiv. per base pair at pH 7 after 1 hr by spectrometric analysis. The format is nucleic-acid assay. The note with it: Bos taurus.

Structures are written as SMILES. pIC50: −log10 of the molar value.

With `CN(C)CCOc1ccc2[nH]c(C(=O)N3CC(CCl)c4c3cc(NC(=O)OC(C)(C)C)c3ccccc43)cc2c1` (configuration not stated), the negative logarithm of the IC50 (pIC50) – broadly, the negative decadic logarithm of the IC50, by convention in mol/L – in the experiment on LNCaP is 6.66.

Take `COc1c(O)c2c(c3cc(C(=O)N4CCc5c4c(O)c(OC)c4[nH]c(C(=O)N6C[C@H]7C[C@@]78C6=CC(=O)c6[nH]cc(C)c68)cc54)[nH]c13)CCN2C(N)=O` [(+)-CC-1065]: the ΔTm (commonly the shift of the melting midpoint relative to a reference) with Calf thymus DNA [1] came to 31 °C. In addition, the pIC50 in the experiment with L1210 [2] is 10.62.

As for `COC(=O)c1cc2c([nH]1)C(=O)C=C1N(C(=O)c3cc4cc(OC)c(OC)c(OC)c4[nH]3)CC3CC123` (configuration not stated) [DUOCARMYCIN SA], the pIC50 in the experiment on L1210 [3] was 11.00.

Compound `COc1cc2[nH]c(C(=O)N3C[C@H]4C[C@@]45C3=CC(=O)c3[nH]c(C(=O)N4CCc6c4c(O)c(OC)c4[nH]c(C(=O)SC)cc64)cc35)cc2cc1O` had a pIC50 in the experiment on L1210 [4] of 11.30.

With `CN(C)CCOc1ccc2[nH]c(C(=O)N3CC(CCl)c4c3cc(N)c3ccccc43)cc2c1` (configuration not stated), the pIC50 in the experiment on LNCaP is 7.74.

As to `CN(C)CCOc1ccc2[nH]c(C(=O)N3CC4CC45C3=CC(=N)c3ccccc35)cc2c1` (configuration not stated), the ΔTm in the experiment on Calf thymus DNA [5] stood at 13 °C.

For the origin of these results see ChEMBL document CHEMBL3585314, “Initial development of a cytotoxic amino-seco-CBI warhead for delivery by prodrug systems” (Bioorg Med Chem, 2015).
